From patent US9593108B2, “Compounds and methods for antiviral treatment” (PTC Therapeutics, Inc., priority 2009, dated 2017)

Key:
[1] = tested on: HCV replicon RNA (GenBank Accession No. AJ242654); assay: HCV Replicon Assay (replicon RNA reduction and/or Fluc reporter signal); format: cell-based, Hepatitis C virus; conditions: Hepatitis C virus, 72 h, replicon-containing cells cultured with test compound for up to 3 days
In short: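 Bicistronic replicon-containing cells cultured with compound for up to 3 days, with interferon as positive control. Inhibition quantified by replicon RNA reduction and/or Fluc reporter signal; IC50 values generally derived from replicon RNA reduction.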

Row | Structure (SMILES) | melting point | IC50 [1] [nM]
1 | Cc1cnc2c(C#N)c(-c3ccc(S(=O)(=O)N[C@@H](C)C(F)(F)F)cn3)n(-c3cncs3)c2c1 [Cpd 478, 6-[3-cyano-6-methyl-1-(1,3-thiazol-5-yl)-1H-pyrrolo[3,2-b]pyridin-2-yl]-N-[(2S)-1,1,1-trifluoropropan-2-yl]pyridine-3-sulfonamide] | 273 to 275 °C | 500 to 2000
2 | Cc1cnc2c(C#N)c(-c3ccc(S(=O)(=O)N[C@@H](C)C(F)(F)F)cn3)n(-c3cc(C(F)(F)F)ccn3)c2c1 [Cpd 479, 6-{3-cyano-6-methyl-1-[4-(trifluoromethyl)pyridin-2-yl]-1H-pyrrolo[3,2-b]pyridin-2-yl}-N-[(2S)-1,1,1-trifluoropropan-2-yl]pyridine-3-sulfonamide] | 245 to 246 °C | 500 to 2000
3 | Cc1cnc2c(C#N)c(-c3ccc(S(=O)(=O)N[C@@H](C)C(F)(F)F)cn3)n(-c3ccnnc3)c2c1 [Cpd 480, 6-[3-cyano-6-methyl-1-(pyridazin-4-yl)-1H-pyrrolo[3,2-b]pyridin-2-yl]-N-[(2S)-1,1,1-trifluoropropan-2-yl]pyridine-3-sulfonamide] | 283 to 285 °C | 2000 to 5000
4 | Cc1cnc2c(C#N)c(-c3ccc(S(=O)(=O)N[C@@H](C)C(F)(F)F)cn3)n(-c3ccncn3)c2c1 [Cpd 481, 6-[3-cyano-6-methyl-1-(pyrimidin-4-yl)-1H-pyrrolo[3,2-b]pyridin-2-yl]-N-[(2S)-1,1,1-trifluoropropan-2-yl]pyridine-3-sulfonamide] | 265 to 267 °C | < 500
5 | Cc1cnc2c(C#N)c(-c3ccc(S(=O)(=O)N[C@@H](C)C(F)(F)F)cn3)n(-c3ccncc3)c2c1 [Cpd 482, 6-[3-cyano-6-methyl-1-(pyridin-4-yl)-1H-pyrrolo[3,2-b]pyridin-2-yl]-N-[(2S)-1,1,1-trifluoropropan-2-yl]pyridine-3-sulfonamide] | 303 to 305 °C | < 500
6 | Cc1cnc2c(c1)c(C#N)c(-c1ccc(S(=O)(=O)N[C@@H](C)C(F)(F)F)cc1)n2C [Cpd 483, 4-(3-cyano-1,5-dimethyl-1H-pyrrolo[2,3-b]pyridin-2-yl)-N-[(2S)-1,1,1-trifluoropropan-2-yl]benzenesulfonamide] | 165 to 170 °C | 500 to 2000
7 | CCn1c(-c2ccc(S(=O)(=O)N[C@@H](C)C(F)(F)F)cc2)c(C#N)c2cc(C)cnc21 [Cpd 484, 4-(3-cyano-1-ethyl-5-methyl-1H-pyrrolo[2,3-b]pyridin-2-yl)-N-[(2S)-1,1,1-trifluoropropan-2-yl]benzenesulfonamide] | 147 to 152 °C | 500 to 2000
8 | CCCn1c(-c2ccc(S(=O)(=O)N[C@@H](C)C(F)(F)F)cc2)c(C#N)c2cc(C)cnc21 [Cpd 485, 4-(3-cyano-5-methyl-1-propyl-1H-pyrrolo[2,3-b]pyridin-2-yl)-N-[(2S)-1,1,1-trifluoropropan-2-yl]benzenesulfonamide] | 235 to 240 °C | < 500
9 | Cc1cnc2c(c1)c(C#N)c(-c1ccc(S(=O)(=O)N[C@@H](C)C(F)(F)F)cc1)n2C(C)C [Cpd 486, 4-[3-cyano-5-methyl-1-(propan-2-yl)-1H-pyrrolo[2,3-b]pyridin-2-yl]-N-[(2S)-1,1,1-trifluoropropan-2-yl]benzenesulfonamide] | 197 to 202 °C | < 500
10 | Cc1cnc2c(c1)c(C#N)c(-c1ccc(S(=O)(=O)N[C@@H](C)C(F)(F)F)cc1)n2CC1CC1 [Cpd 487, 4-[3-cyano-1-(cyclopropylmethyl)-5-methyl-1H-pyrrolo[2,3-b]pyridin-2-yl]-N-[(2S)-1,1,1-trifluoropropan-2-yl]benzenesulfonamide] | 175 to 181 °C | < 500
11 | Cc1cnc2c(c1)c(C#N)c(-c1ccc(S(=O)(=O)N[C@@H](C)C(F)(F)F)cc1)n2CC(C)C [Cpd 488, 4-[3-cyano-5-methyl-1-(2-methylpropyl)-1H-pyrrolo[2,3-b]pyridin-2-yl]-N-[(2S)-1,1,1-trifluoropropan-2-yl]benzenesulfonamide] | 168 to 176 °C | < 500
12 | Cc1cnc2c(c1)c(C#N)c(-c1ccc(S(=O)(=O)N[C@@H](C)C(F)(F)F)cc1)n2CC1CCC1 [Cpd 489, 4-[3-cyano-1-(cyclobutylmethyl)-5-methyl-1H-pyrrolo[2,3-b]pyridin-2-yl]-N-[(2S)-1,1,1-trifluoropropan-2-yl]benzenesulfonamide] | 154 to 158 °C | < 500
13 | Cc1cnc2c(c1)c(C#N)c(-c1ccc(S(=O)(=O)N[C@@H](C)C(F)(F)F)cn1)n2C [Cpd 490, 6-(3-cyano-1,5-dimethyl-1H-pyrrolo[2,3-b]pyridin-2-yl)-N-[(2S)-1,1,1-trifluoropropan-2-yl]pyridine-3-sulfonamide] | 182 to 186 °C | 500 to 2000
14 | CCn1c(-c2ccc(S(=O)(=O)N[C@@H](C)C(F)(F)F)cn2)c(C#N)c2cc(C)cnc21 [Cpd 491, 6-(3-cyano-1-ethyl-5-methyl-1H-pyrrolo[2,3-b]pyridin-2-yl)-N-[(2S)-1,1,1-trifluoropropan-2-yl]pyridine-3-sulfonamide] | 168 to 171 °C | < 500
15 | CCCn1c(-c2ccc(S(=O)(=O)N[C@@H](C)C(F)(F)F)cn2)c(C#N)c2cc(C)cnc21 [Cpd 492, 6-(3-cyano-5-methyl-1-propyl-1H-pyrrolo[2,3-b]pyridin-2-yl)-N-[(2S)-1,1,1-trifluoropropan-2-yl]pyridine-3-sulfonamide] | 145 to 149 °C | < 500
16 | Cc1cnc2c(c1)c(C#N)c(-c1ccc(S(=O)(=O)N[C@@H](C)C(F)(F)F)cn1)n2C(C)C [Cpd 493, 6-[3-cyano-5-methyl-1-(propan-2-yl)-1H-pyrrolo[2,3-b]pyridin-2-yl]-N-[(2S)-1,1,1-trifluoropropan-2-yl]pyridine-3-sulfonamide] | 157 to 162 °C | < 500
17 | Cc1cnc2c(c1)c(C#N)c(-c1ccc(S(=O)(=O)N[C@@H](C)C(F)(F)F)cn1)n2CC1CC1 [Cpd 494, 6-[3-cyano-1-(cyclopropylmethyl)-5-methyl-1H-pyrrolo[2,3-b]pyridin-2-yl]-N-[(2S)-1,1,1-trifluoropropan-2-yl]pyridine-3-sulfonamide] | 198 to 204 °C | < 500
18 | Cc1cnc2c(c1)c(C#N)c(-c1ccc(S(=O)(=O)N[C@@H](C)C(F)(F)F)cn1)n2CC(C)C [Cpd 495, 6-[3-cyano-5-methyl-1-(2-methylpropyl)-1H-pyrrolo[2,3-b]pyridin-2-yl]-N-[(2S)-1,1,1-trifluoropropan-2-yl]pyridine-3-sulfonamide] | 125 to 130 °C | < 500
19 | Cc1cnc2c(c1)c(C#N)c(-c1ccc(S(=O)(=O)N[C@@H](C)C(F)(F)F)cn1)n2CC1CCC1 [Cpd 496, 6-[3-cyano-1-(cyclobutylmethyl)-5-methyl-1H-pyrrolo[2,3-b]pyridin-2-yl]-N-[(2S)-1,1,1-trifluoropropan-2-yl]pyridine-3-sulfonamide] | 135 to 139 °C | < 500
20 | C[C@H](NS(=O)(=O)c1ccc(-c2c(C#N)c3cc(N(C)C)cnc3n2C2CCC2)nc1)C(F)(F)F [Cpd 497, 6-[3-cyano-1-cyclobutyl-5-(dimethylamino)-1H-pyrrolo[2,3-b]pyridin-2-yl]-N-[(2S)-1,1,1-trifluoropropan-2-yl]pyridine-3-sulfonamide] | 183 to 185 °C | < 500
21 | CN(C)c1cnc2c(c1)c(C#N)c(-c1ccc(NS(=O)(=O)C(C)(C)C)cc1)n2C1CCC1 [Cpd 498, N-{4-[3-cyano-1-cyclobutyl-5-(dimethylamino)-1H-pyrrolo[2,3-b]pyridin-2-yl]phenyl}-2-methylpropane-2-sulfonamide] | 200 to 202 °C | < 500
22 | CN(C)c1cnc2c(c1)c(C#N)c(-c1ccc(NS(=O)(=O)C3(C)CC3)cc1)n2C1CCC1 [Cpd 499, N-{4-[3-cyano-1-cyclobutyl-5-(dimethylamino)-1H-pyrrolo[2,3-b]pyridin-2-yl]phenyl}-1-methylcyclopropanesulfonamide] | 209 to 213 °C | < 500
23 | C[C@H](NS(=O)(=O)c1ccc(-c2c(C#N)c3cc(N(C)C)cnc3n2C2CCC2)cc1)C(F)(F)F [Cpd 500, 4-[3-cyano-1-cyclobutyl-5-(dimethylamino)-1H-pyrrolo[2,3-b]pyridin-2-yl]-N-[(2S)-1,1,1-trifluoropropan-2-yl]benzenesulfonamide] | 198 to 200 °C | < 500
24 | Cc1cnc2c(c1)c(C#N)c(-c1ccc(S(=O)(=O)N[C@@H](C)C(F)(F)F)cn1)n2-c1ccccc1F [Cpd 501, 6-[3-cyano-1-(2-fluorophenyl)-5-methyl-1H-pyrrolo[2,3-b]pyridin-2-yl]-N-[(2S)-1,1,1-trifluoropropan-2-yl]pyridine-3-sulfonamide] | 128 °C (dec.) | < 500
25 | Cc1cnc2c(c1)c(C#N)c(-c1ccc(S(=O)(=O)N[C@@H](C)C(F)(F)F)cn1)n2-c1cccc(F)c1 [Cpd 502, 6-[3-cyano-1-(3-fluorophenyl)-5-methyl-1H-pyrrolo[2,3-b]pyridin-2-yl]-N-[(2S)-1,1,1-trifluoropropan-2-yl]pyridine-3-sulfonamide] | 238 to 240 °C | < 500
26 | Cc1cnc2c(c1)c(C#N)c(-c1ccc(S(=O)(=O)N[C@@H](C)C(F)(F)F)cn1)n2-c1ccc(F)cc1 [Cpd 503, 6-[3-cyano-1-(4-fluorophenyl)-5-methyl-1H-pyrrolo[2,3-b]pyridin-2-yl]-N-[(2S)-1,1,1-trifluoropropan-2-yl]pyridine-3-sulfonamide] | 253 to 254 °C | < 500
27 | Cc1cnc2c(c1)c(C#N)c(-c1ccc(S(=O)(=O)N[C@@H](C)C(F)(F)F)cn1)n2-c1cc(F)ccc1F [Cpd 504, 6-[3-cyano-1-(2,5-difluorophenyl)-5-methyl-1H-pyrrolo[2,3-b]pyridin-2-yl]-N-[(2S)-1,1,1-trifluoropropan-2-yl]pyridine-3-sulfonamide] | 232 to 234 °C | < 500
